Data from paper PMC7955127, “Preclinical small molecule WEHI-7326 overcomes drug resistance and elicits response in patient-derived xenograft models of human treatment-refractory tumors” (Cell Death & Disease, 2021).

Tests used:
134169 HGSOC PDX = assay: HGSOC post-chemo PDX model 134169; format: in vivo, NSG mice; conditions: 134169 post-taxane, cisplatin-refractory PDX; 20 mg/kg i.v. twice a week, 6 weeks
Protocol: Two to three mm ovarian tumor fragments were subcutaneously engrafted in the left flank of NSG mice and monitored by physical palpation for tumor growth and engraftment. Engrafted tumors were measured twice a week using digital Vernier calipers and maximum tumor diameter + perpendicular tumor length were digitally recorded into the Study Director software (v 3.0/4.0 StudyLog). Tumor volume was calculated automatically (tumor volume (mm^3) = 0.5236 x [larger diameter (mm) x smaller diameter (mm)^2]). Mice were randomized to treatment once their tumor volume reach 180–300 mm^3 and tumor measurements were performed twice a week up to 120 days or when the tumor volume reaches 700 mm^3.
Time to progressive disease (PD): Defined as the time (in days) from beginning of treatment to an increase in average tumor volume of >20% from the nadir (taken as the smallest average tumor volume recorded since treatment started or 200 mm^3 if nadir was <200 mm^3 as lesions smaller than this are difficult to measure with accuracy). Median time to harvest (TTH): Defined as the time (in days) from the beginning of treatment to day of harvest at 700 mm^3 and the median TTH was calculated and plotted using Kaplan-Meier curves. Based on ref. [27]. […]

[1] = tested on: COG-N-440x neuroblastoma PDX; assay: High-risk neuroblastoma PDX COG-N-440x; format: in vivo, NSG mice; conditions: COG-N-440x PDX; 20 mg/kg i.v. twice weekly
Protocol: (§1) All animal studies were performed in accordance with the guidelines approved by University of New South Wales Animal Care and Ethics Committee (ACEC 17/53B) and in accordance with the requirements of the Australian Code for the Care and Use of Animals for Scientific Purposes. PDX models COG-N-440x and COG-N-496x were obtained from the Childhood Cancer Repository, Texas Tech University Health Sciences Center in Lubbock, TX, USA. 6–8 week old female NSG mice were engrafted by subcutaneous injection with 1 × 10^6 freshly thawed PDX tumor cells into one flank in a mixture of 100 μl RPMI-1640 and 100 μl Matrigel. Mice were monitored for tumor development three times weekly and tumor size measured using digital Vernier calipers. Treatments commenced when tumors reached 50 mm^3, following randomization into treatment arms. […] Mice were treated with either vincristine (0.5 mg/kg, once weekly i.p. in sterile saline for up to 5 weeks), WEHI-7326 (20 mg/kg; twice weekly i.v. in sterile saline for up to 5 weeks) or vehicle (as for WEHI-7326). For the Th-MYCN transgenic mouse model, spontaneous tumor growth in mice homozygous for the MYCN transgene was assessed by abdominal palpation at least twice a week. Treatments commenced once a small palpable tumor (~5 mm) was detected, following randomization to treatment arms. Mice were euthanized upon detection of an abdominal tumor of ~1 cm in diameter. […]

322 T TNBC PDX = assay: TNBC PDX model 322T; format: in vivo, NOD-SCID-IL2Rγc–/– mice
Protocol: Cohorts of about 30 female mice were seeded with thawed single cell suspensions of early passage human breast tumors (passage 2 or 3). Briefly, 150,000–250,000 cells were resuspended in 10 µl of transplantation buffer (50% fetal calf serum, 10% of a 0.04% trypan blue solution and 40% PBS) and growth-factor-reduced Matrigel [BD] at a ratio of 3:1, and injected into the cleared mammary fat pads of 3- or 4-week-old NOD-SCID-IL2Rγc–/– female mice. Mice were monitored for tumor development three times weekly and tumor size measured using digital Vernier calipers. Tumor volume was estimated by measuring the minimum and maximum tumor diameters using the formula: (minimum diameter)^2 x (maximum diameter)/2. Once tumors arose, mice were randomized into treatment arms. Treatment was initiated when the tumor volume reached 80–120 mm^3. Randomization and tumor measurements were managed using the Study Director software (v 3.0, studylog). Mice were sacrificed at the first measurement where tumor volume exceeded 600 mm^3, or if their health deteriorated for reasons other than disease progression or drug toxicity (censored event).
Mice were treated with either docetaxel (10 mg/kg; i.p.; once), cisplatin (4 mg/kg; i.p.; once) or WEHI-7326 (20 mg/kg; twice a week (Monday and Thursday); i.v.). Vehicle treated mice were administered with the vehicle for WEHI-7326. Docetaxel was resuspended at 2 mg/ml in PBS:Tween-80:ethanol = 90:5:5 (v/v/v). WEHI-7326 was resuspended at 2 mg/ml in saline.

[2] = tested on: spontaneous neuroblastoma in Th-MYCN transgenic mice; assay: Th-MYCN transgenic mouse model of neuroblastoma; format: in vivo; conditions: WEHI-7326 20 mg/kg i.v. twice weekly, standard-of-care combinations daily i.p. for 5 days
Protocol: as §1

MDA-MB-231 = assay: Cell growth inhibition assay, MDA-MB-231; format: cell-based; conditions: Homo sapiens; MDA-MB-231, breast carcinoma; 72 h viability assay, CellTiterGlo; mean of 3 ± SEM; read-out: IC50 (inhibition of cellular proliferation)
Protocol: Cells were plated at a density of between 500 to 5000 cells per well for adherent cell lines depending on doubling time, and 15,000 cells per well for lymphoblastic leukemia cell lines, in a 96-well plate in 200 μl of growth media. Plates were incubated overnight at 37 °C before adding the inhibitors. Inhibitors were serially diluted from the stock solutions in complete medium and added to the cells. Incubation in the presence of inhibitors was continued for […]. Cell viability was assessed by the AlamarBlue (Invitrogen) or CellTiterBlue/Glo (Promega) method according to manufacturer’s instructions. The curve fits and IC50 values were generated in PRISM (GraphPad, San Diego, CA).

With COc1ccc(CNc2nc(NCc3ccc(CN)cc3)nc(NN3CC(=O)NC3=O)n2)cc1 [WEHI-7326] as the molecule, how does the Tumor response (134169 HGSOC PDX) read?
The Tumor response was “ineffective”.

What about the Median survival [1] of the same molecule?
Its Median survival is 39 days.

What about the “Adverse effects in treatment arm” value (322 T TNBC PDX; 322 T PDX mice, 20 mg/kg i.v. twice a week, n = 10) of the same molecule?
The value was 1 sick, 1 found dead.

What about the Survival time (322 T TNBC PDX; 322 T PDX, docetaxel 10 mg/kg i.p. once, WEHI-7326 20 mg/kg i.v. biweekly) of the same molecule?
Its Survival time is 18 days.

What about the Median survival [2] of the same molecule?
The Median survival was 44 days.

What about the IC50 (MDA-MB-231) of the same molecule?
The IC50 was 24.4 ± 3.1 nM.
